Read-outs that look alike come from different tables or passages of the source.

From publication PMC3220277 (2011) come the findings set out here.

Common to all, as to assay type: binding
Assay [1] has as its target T1, C3R/C86S S100A4 (Homo sapiens, UniProt P26447, C3R/C86S). The experiment in a line: competitive fluorescence anisotropy against FITC-MIIA.
The target of assay [2] is T2, S100A4 (Homo sapiens, UniProt P26447). In words: LC-ESI MS of covalent adducts.
In assay [3] the target is T2, S100A4. The experiment in a line: competitive fluorescence anisotropy against FITC-MIIA.
The target in assay [4] is T1, C3R/C86S S100A4. The description is as above. This is another data set of the same source.

T2 sequence (P26447 2-101): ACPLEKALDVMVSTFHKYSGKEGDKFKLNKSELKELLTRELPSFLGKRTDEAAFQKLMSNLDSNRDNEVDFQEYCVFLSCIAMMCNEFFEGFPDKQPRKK
T1 sequence (P26447 2-101 C3R/C86S, one chain of several): as the sequence (P26447 2-101) above, with C2R, C85S counted along it

With `O=C1C(SCCO)=C(SCCO)C(=O)c2ccccc21` [NSC 95397, 2,3-bis[2-hydroxyethylsulfanyl]-1,4-naphthoquinone], the IC50 on C3R/C86S S100A4 [1] is 5.7 ± 0.5 µM; at S100A4 [2], 1.8 ± 0.6 µM.

As for `CC1=C(SCCO)C(=O)c2ccccc2C1=O` [NSC 672121, 2-(2-hydroxyethylsulfanyl)-3-methylnaphthalene-1,4-dione], the IC50 on S100A4 [3] is 2.7 ± 0.7 µM; at C3R/C86S S100A4 [4] it was 5.3 ± 0.6 µM.
